PubChem BioAssay AID179 (DTP/NCI, 2004)
Activity calls are given as the source filed them.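 Rule for the calls: active = compounds giving half or more protection of infected cells from virus-caused growth loss, again on retest; inactive = the rest.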 Where a SMILES comes first, the peptide text is derived from it. The star is where a group is joined. Cbz = O=C(OCc1ccccc1)*

System: CEM cells HIV-1 protection, formazan growth assay
Experiment: NCI AIDS Antiviral Assay
Details: for IC50: measured here: growth of uninfected CEM cells
Summary of the method: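 Human CEM cells, uninfected and HIV-1-infected, received five drug concentrations, and growth was read by soluble formazan assay. Compounds giving at least 50% protection were retested; reproducible 100% protection defined confirmed active.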

| Structure (SMILES) | EC50 | IC50 | outcome |
| --- | --- | --- | --- |
| COC(=O)C1=NC(=S)N=C(C(=O)OC)C12Cc1ccccc1C2=O | > 724 µM | 214 µM |  |
| CC(C)(C)OC(=O)NC(Cc1cc(C(C)(C)C)c(O)c(C(C)(C)C)c1)C(=O)O (stereo not given) | > 200 µM | 61.7 µM |  |
| O=c1[nH]c2cc(Cl)ccc2nc1/C(=N\O)C(O)c1ccc([N+](=O)[O-])cc1 (stereo not given) |  |  | inactive |
| N#C/C(=C\c1ccccc1[N+](=O)[O-])C(=O)O | > 603 µM | 363 µM |  |
| CC(=O)Nc1ccc(S2=Nc3ccccc3S2)cc1 (stereo not given) | > 49 µM | 16.2 µM |  |
| C/C(=N\OC(=O)Nc1cccc(Cl)c1)c1ccccc1 | > 200 µM | 32.4 µM |  |
| COc1cc2nc3n(c2cc1OC)C(O)c1c(Cl)nc(SC)nc1S3 (stereo not given) | > 200 µM | 7.76 µM |  |
| COc1cc(O)c2c(=O)oc3cc(O)cc(C)c3c2c1 | > 34.7 µM | > 34.7 µM |  |
| C[N+](C)(C)CC1CCc2ccccc2C1=O (stereo not given) | > 724 µM | 1.32 µM |  |
| O=[N+]([O-])c1cccc2nc3ccccc3c(NCCCNc3c4ccccc4nc4cccc([N+](=O)[O-])c34)c12 | > 200 µM | 0.0631 µM |  |
| CCCCCCCCCCCCCCCCN1CCC2SC3CN(CCCCCCCCCCCCCCCC)CCC3SC2C1 (stereo not given) | > 100 µM | > 100 µM |  |
| O=[N+]([O-])c1ccc(Nc2nnc(-c3ccc(Cl)cc3Cl)s2)cc1 |  |  | inactive |
| CCC1(CC)C(=O)N(C(=O)c2ccc(Cl)cc2)N(C(=O)c2ccccc2Cl)C1=O | > 200 µM | 45.7 µM |  |
| COC(=O)C1(C)OC(C)=NC1(C(=O)OC)C(=O)OC (stereo not given) | > 200 µM | > 200 µM |  |
| CCCCCCCCCCCCCCCCOC1OC(CBr)C(O)C(O)C1O (stereo not given) | > 8.13 µM | > 8.13 µM |  |
| Cc1ccc([N+](=O)[O-])cc1NC(=O)C(=O)Cc1nc2ccc(C(=O)c3ccccc3)cc2[nH]c1=O | > 275 µM | 110 µM |  |
| O=C1C2=C(SCCS2)C(=O)c2c(Sc3ccc(Cl)cc3)c(Sc3ccc(Cl)cc3)c(Sc3ccc(Cl)cc3)c(Sc3ccc(Cl)cc3)c21 | > 151 µM | > 151 µM |  |
| Cc1ccc(NC(c2ccccc2)P(=O)(c2ccccc2)c2ccccc2)cc1 (stereo not given) | > 200 µM | > 200 µM |  |
| Cc1ccc(SSc2ccc(C)c(Cl)c2)cc1Cl | > 200 µM | > 200 µM |  |
| CC(C)(C)C1=CC(=Nc2ccc([N+](=O)[O-])cc2[N+](=O)[O-])C=C(C(C)(C)C)C1=O | > 13.5 µM | > 13.5 µM |  |
| Cc1ccc2c(c1)[nH]c(=S)n2/C=C(/C#N)c1ccc([N+](=O)[O-])cc1 | > 200 µM | > 200 µM |  |

| Structure (SMILES) | EC50 | IC50 | outcome |
| --- | --- | --- | --- |
| CC[N+](C)(C)C1=C([O-])C(F)(F)C1=O | > 200 µM | > 200 µM |  |
| O=C(c1ccccc1)c1c2ccccn2c2cccc[n+]12 | > 200 µM | 53.7 µM |  |
| COC(=O)C1CCC(=S)N1C(=O)c1ccccc1 (stereo not given) | > 200 µM | > 200 µM |  |
| O=C1CC(c2ccccc2)=NO1 | > 200 µM | > 200 µM |  |
| Cc1cn(C2CC(N=[N+]=[N-])C(CO)O2)c(=O)[nH]c1=O (stereo not given) | 0.0148 µM | 0.316 µM |  |
| Cn1cc(NC(=O)c2cc(NC(=O)[C@@H]3CCC(N)=N3)c[nH]2)cc1C(=O)NCCC(=N)N |  |  | inactive |
| CCOC(=O)CNC(=O)C(CC(C)C)NC(=O)C1CCCN1C(=O)OCc1ccccc1 (stereo not drawn) (Cbz-Pro-Leu-Gly-OEt; configuration not given here) | > 562 µM | 37.2 µM |  |
| Cn1c(=O)c2c3ccccc3c(C(=O)c3ccccc3)n2c2ccccc21 | > 51.3 µM | 3.09 µM |  |
| COc1ccccc1NC(=O)C(=O)Cc1cnc2ccccc2n1 | > 209 µM | 138 µM |  |
| CC12SC3(C)SC(C)(S1)SC(C)(S2)S3 | > 44.7 µM | 33.1 µM |  |
| COc1c(Cl)cc(C(=CCCCCN[C@@H]2CC[C@@]3(C)[C@@H](CC[C@@H]4[C@@H]3CC[C@]3(C)[C@@H](C(C)CCCC(C)C)CC[C@@H]43)C2)c2cc(Cl)c(OC)c(C(=O)O)c2)cc1C(=O)O (stereo not given in full) | > 200 µM | > 200 µM |  |
| Clc1cc2nc(C3CCCO3)[nH]c2cc1Cl (stereo not given) | > 200 µM | 66.1 µM |  |
| COc1ccc2nc3ccc(OC)cc3c(SCc3ccc([N+](=O)[O-])cc3)c2c1 | > 200 µM | > 200 µM |  |
| COC(=O)c1cnc2nc(N3CCOCC3)[nH]n2c1=O | > 12.9 µM | > 12.9 µM |  |
| COC12OCCN(CCO)C1=CC(=O)C1(C)N=NC(C)C12 (stereo not given) |  |  | inactive |
| C/C=C(/I)CBr | > 955 µM | 479 µM |  |
| CC(C)(C)CC(C)(C)SSc1n[nH]c(=S)s1 | > 200 µM | 17.4 µM |  |
| C(#CP(c1ccccc1)c1ccccc1)P(c1ccccc1)c1ccccc1.C(#CP(c1ccccc1)c1ccccc1)P(c1ccccc1)c1ccccc1.C(#CP(c1ccccc1)c1ccccc1)P(c1ccccc1)c1ccccc1.C(#CP(c1ccccc1)c1ccccc1)P(c1ccccc1)c1ccccc1.[Pt].[Pt] | > 6.92 µM | 4.79 µM |  |
| O=[N+]([O-])C(/C=C(\Cl)[N+](=O)[O-])=C(N1CCOCC1)N1CCOCC1 | > 200 µM | 110 µM |  |
| COC(=O)[C@]1(C)CCC[C@@]2(C)C1CC[C@@]13C=C(C(C)C)[C@@H](CC1=O)CC23 (stereo not given in full) | > 200 µM | 36.3 µM |  |
| Cc1cc(N(CCC#N)CCC#N)ccc1/C=C(\NC(=O)/C=C/c1ccccc1)C(=O)N=[N+]=[N-] |  |  | inactive |

| Structure (SMILES) | EC50 | IC50 | outcome |
| --- | --- | --- | --- |
| COc1ccc(C(=O)C2CCC(C(=O)O)C2)cc1 (stereo not given) |  |  | inactive |
| COC(=O)C12C34C=CC5(CCC6(C=CC1(CC3)O6)C52C(=O)OC)O4 (stereo not given) |  |  | inactive |
| O=C(CN1CCCC1=O)CS(=O)(=O)c1ccccc1 | > 891 µM | > 891 µM |  |
| Nc1ccc2c(c1)C1(NC(=O)NC1=O)c1cc(N)ccc1-2 | > 200 µM | > 200 µM |  |
| COC/C=C\[C@]1(O)CCCC[C@@H]1CC(OC)OC | > 200 µM | 30.9 µM |  |
| Cc1cn(COCCCO[Si](C)(C)C(C)(C)C)c(=O)[nH]c1=O | 112 µM | 174 µM |  |
| COc1ccc(OC(C)C(=O)O)c2c1CCCC2=O (stereo not given) |  |  | inactive |
| COC(=O)C1CCOC(C)N1C(=O)OC(C)(C)C (stereo not given) | > 200 µM | > 200 µM |  |
| N#C/C(=C\c1c[nH]c2ccccc12)C(=O)c1ccc(O)c(O)c1 | > 85.1 µM | 46.8 µM |  |
| CC(=O)/C(=C/n1c(=S)[nH]c2ccc([N+](=O)[O-])cc21)C(=O)Nc1ccc(Cl)cc1 | > 100 µM | > 100 µM |  |
| O=c1c2ccccc2nc(-c2ccccc2)n1NC(=S)Nc1ccc(Cl)cc1[N+](=O)[O-] | > 15.8 µM | > 15.8 µM |  |
| C=C1C(O)O[C@@H]2O[C@@]3(C)CC[C@H]4[C@H](C)CC[C@@H]1[C@@]24OO3 (stereo not given in full) | > 200 µM | 8.71 µM |  |
| CCOC(=O)C(NC(=O)c1ccccc1)(Nc1ccc(S(=O)(=O)Nc2ncccn2)cc1)C(F)(F)F (stereo not given) | > 200 µM | > 200 µM |  |
| CCn1c(=O)c2c3cc(O)ccc3oc2c2ccc(O)cc21 | > 200 µM | > 200 µM |  |
| CC(=O)O[C@@H]1CC[C@]2(C)C3CC[C@]4(C)C(C(C)CCc5nc6ccccc6n5C(C)=O)CCC4C3[C@H](OC(C)=O)C[C@@H]2C1 (stereo not given in full) | > 50.1 µM | 3.16 µM |  |
| O=C1CCC(=O)c2c1c(O)c1ccncc1c2O |  |  | inactive |
| O=[N+]([O-])C1C2C=CC(C2)[C@H]1c1ccccc1Cl (stereo not given in full) |  |  | inactive |
| O=[N+]([O-])c1ccc(/C=C/c2csnn2)cc1 | > 562 µM | 229 µM |  |
| O=C(CC1C(=O)c2ccccc2C1=C1C(=O)c2ccccc2C1=O)c1ccccc1 (stereo not given) | > 9.55 µM | 5.5 µM |  |
| CCOC12SC(=Nc3ccc(C)cc3)NN1C(=S)N(C)N=C2C (stereo not given) | > 200 µM | > 200 µM |  |
| COC1=NS(=O)(=O)C2(O1)c1ccccc1-c1ccccc12 | > 117 µM | 89.1 µM |  |

| Structure (SMILES) | EC50 | IC50 | outcome |
| --- | --- | --- | --- |
| CC(C)(C)n1c(=O)[nH]c(=O)n1C(C)(C)C | > 200 µM | > 200 µM |  |
| O=C1CN(CC2=CC3(CC2)CCC2=C3CCCC2=O)C(=O)N1 (stereo not given) | > 417 µM | > 417 µM |  |
| O=C(c1ccccc1)c1nnn(Cc2ccccc2Cn2nnc(C(=O)c3ccccc3)c2C(=O)c2ccccc2)c1C(=O)c1ccccc1 | > 7.94 µM | > 7.94 µM |  |
| CN(C)/N=N/c1nc2c(c(=O)n(C)c(=O)n2C)n1C | > 151 µM | > 151 µM |  |
| C[C@]12CCC(=O)C[C@H]1CCC(O)[C@@H]2Br (stereo not given in full) |  |  | inactive |
| CCC(C)C(NC(=O)C(CCCCN)NC(=O)CNC(=O)C(NC(=O)C(NC(=O)C(NC(=O)C(Cc1ccccc1)NC(=O)C(C)NC(=O)C(CCCNC(=N)N)NC(=O)CNC(=O)C1CCCN1C(=O)CNC(=O)C(CCCNC(=N)N)NC(=O)C(CCC(N)=O)NC(=O)C(NC(=O)C(CCCNC(=N)N)NC(=O)C(NC(=O)C(CO)NC(=O)C(CCCCN)NC(=O)C(CCCNC(=N)N)NC(=O)C(NC(=O)C(CC(N)=O)NC(=O)C(N)CC(N)=O)C(C)O)C(C)CC)C(C)CC)C(C)C)C(C)OC1OC(CO)C(O)C(O)C1NC(C)=O)C(C)CC)C(=O)NCC(N)=O (stereo not given) | 24.5 µM | 50.1 µM |  |
| CN(C)c1ccc(-c2nc(N)nc3c2CCCC3)cc1 | > 37.2 µM | > 37.2 µM |  |
| Cc1cn(C2CC(NC(=O)N(C)O)C(CO[Si](C)(C)C(C)(C)C)O2)c(=O)[nH]c1=O (stereo not given) | > 200 µM | 107 µM |  |
| N#C[C@H](C(=O)c1ccccc1F)c1nc2ccccc2[nH]1 | 170 µM | > 200 µM |  |
| COC(=O)C(Cn1cnc2c(Cl)nc(N)nc21)P(=O)(OC)OC (stereo not given) | > 692 µM | 37.2 µM |  |
| CC(C)(C)[Si](C)(C)OCCc1ccccc1C1CC2(S(=O)(=O)c3ccccc3)ON1CC2S(=O)(=O)c1ccccc1 (stereo not given) | > 16.2 µM | > 16.2 µM |  |
| CO/C(=N\N=C(/c1ccccc1)C(F)(F)F)c1ccncc1 | > 200 µM | 27.5 µM |  |
| CC(=O)C1=C(O)C2C3c4c[nH]c5cccc(c45)CC3C(C)(C)N2C1=O (stereo not given) |  |  | inactive |
| CC1=CC(C)(C)N=C2SC(c3ccc(Cl)cc3)=NN12 | > 24.5 µM | 20 µM |  |
| S=C(S)N(Cc1ccccc1)Cc1ccccc1 | > 200 µM | 24.5 µM |  |
| O=C(CCCCCCCCCCc1ccccc1)c1c(O)cccc1O | > 14.8 µM | > 14.8 µM |  |
| N#C/C(=C(\O)c1ccccc1)c1nc2ccccc2[nH]1 | > 69.2 µM | > 69.2 µM |  |
| COc1cccc(/C=N\N=C\c2cccc(OC)c2O)c1O | > 200 µM | 66.1 µM |  |
